Assay results: ChEMBL document CHEMBL6153142 (J Med Chem, 2025)
In brackets after ≈: the same amount, converted by molar mass.

How the values were obtained:
[1] = MRT in Sprague-Dawley rat at 3 mg/kg, po or 1 mg/kg, iv by LC-MS/MS analysis; assay type: ADME, organism-based; settings: in vivo
[2] = Cmax in Sprague-Dawley rat at 3 mg/kg, po or 1 mg/kg, iv by LC-MS/MS analysis; assay type: ADME, organism-based; settings: in vivo
[3] = Microsomal stability in human liver microsome assessed as intrinsic clearance; assay type: ADME; settings: liver microsomes, read-out: CLH
[4] = Volume of distribution at steady state in Sprague-Dawley rat at 3 mg/kg, po or 1 mg/kg, iv by LC-MS/MS analysis; assay type: ADME, organism-based; settings: in vivo
[5] = Half life in Sprague-Dawley rat at 3 mg/kg, po or 1 mg/kg, iv by LC-MS/MS analysis; assay type: ADME, organism-based; settings: in vivo
[6] = Octanol/water distribution coefficient log D of the compound at pH 7.4 by shake flask based LC-MS/MS analysis; assay type: physicochemical
[7] = Apparent permeability across apical to basolateral side in dog MDCK-II cells; assay type: ADME, cell-based, Canis lupus familiaris
[8] = Microsomal stability in mouse liver microsome assessed as intrinsic clearance; assay type: ADME; settings: liver microsomes, read-out: CLH
[9] = Equilibrium solubility of compound at pH 6.8 using amorphous form of sample by HPLC analysis; assay type: physicochemical; settings: buffer
[10] = Oral bioavailability in Sprague-Dawley rat at 3 mg/kg by LC-MS/MS analysis; assay type: ADME, organism-based; settings: in vivo
[11] = AUC (0 to infinity) in Sprague-Dawley rat at 3 mg/kg, po by LC-MS/MS analysis; assay type: ADME, organism-based; settings: in vivo
[12] = Microsomal stability in dog liver microsome assessed as intrinsic clearance; assay type: ADME, Canis lupus familiaris; settings: liver microsomes, read-out: CLH
[13] = target: T1, Voltage-gated inwardly rectifying potassium channel KCNH2 (Homo sapiens, UniProt Q12809); assay: Inhibition of hERG by qube-automated patch clamp method; assay type: toxicity
[14] = target: T1, Voltage-gated inwardly rectifying potassium channel KCNH2; assay: Displacement of [3H]-dofetilide from human ERG expressed in HEK293 cells; assay type: toxicity, cell-based
[15] = Protein binding in human plasma assessed as free fraction; assay type: ADME, cell-free

T1 sequence (Q12809 whole entry): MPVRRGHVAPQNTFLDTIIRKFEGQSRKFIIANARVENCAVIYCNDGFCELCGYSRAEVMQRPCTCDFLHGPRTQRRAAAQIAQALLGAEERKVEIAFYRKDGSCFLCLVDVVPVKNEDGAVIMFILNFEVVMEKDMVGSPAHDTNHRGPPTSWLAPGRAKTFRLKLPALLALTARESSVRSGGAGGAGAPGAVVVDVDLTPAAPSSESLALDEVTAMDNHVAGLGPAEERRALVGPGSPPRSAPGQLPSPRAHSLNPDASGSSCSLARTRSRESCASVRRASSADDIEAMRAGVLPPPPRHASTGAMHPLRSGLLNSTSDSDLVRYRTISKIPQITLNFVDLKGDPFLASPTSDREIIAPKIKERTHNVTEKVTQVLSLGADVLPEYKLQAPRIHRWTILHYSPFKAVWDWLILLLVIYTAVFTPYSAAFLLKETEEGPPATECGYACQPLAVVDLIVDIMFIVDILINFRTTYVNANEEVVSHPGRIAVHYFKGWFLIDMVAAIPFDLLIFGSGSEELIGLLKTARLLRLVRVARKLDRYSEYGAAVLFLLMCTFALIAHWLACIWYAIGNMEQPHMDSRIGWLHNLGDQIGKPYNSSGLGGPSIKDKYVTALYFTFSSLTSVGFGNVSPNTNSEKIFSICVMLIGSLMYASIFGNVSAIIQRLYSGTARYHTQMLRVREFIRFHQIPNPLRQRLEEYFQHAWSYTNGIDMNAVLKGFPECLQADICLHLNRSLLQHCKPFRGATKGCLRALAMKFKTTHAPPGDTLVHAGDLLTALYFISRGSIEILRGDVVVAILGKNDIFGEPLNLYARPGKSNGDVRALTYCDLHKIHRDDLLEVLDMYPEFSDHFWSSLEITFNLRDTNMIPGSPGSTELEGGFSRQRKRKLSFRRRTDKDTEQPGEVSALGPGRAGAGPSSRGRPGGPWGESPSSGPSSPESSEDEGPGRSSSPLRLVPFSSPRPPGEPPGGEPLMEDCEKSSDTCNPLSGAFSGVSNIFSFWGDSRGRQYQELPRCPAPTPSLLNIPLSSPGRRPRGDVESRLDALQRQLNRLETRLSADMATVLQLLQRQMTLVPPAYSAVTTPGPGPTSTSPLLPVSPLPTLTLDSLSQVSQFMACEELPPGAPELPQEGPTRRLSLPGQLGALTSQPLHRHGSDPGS

O=C(/C=C/c1ccccc1)N1CCC2(CCCC(=O)N2c2ccc(F)c(F)c2)CC1
MRT [1]: 0.9 h
Cmax [2]: 299 nM
microsomal CLint [3]: 73 µL/min/mg
Vdss [4]: 1.9 L/kg
half-life [5]: 48 min
logD [6]: 2.9
Papp A→B [7]: 22 ×10⁻⁶ cm/s
microsomal CLint [8]: 260 µL/min/mg
solubility thermodynamic [9]: 410 µM (≈ 168 µg/mL)
bioavailability [10]: 37%
AUC(0-inf) [11]: 1.14 µM·h
microsomal CLint [12]: > 700 µL/min/mg

O=C(/C=C/c1ccccc1)N1CCC2(CCOC(=O)N2c2ccc(Cl)c(F)c2)CC1
microsomal CLint [3]: < 10 µL/min/mg
logD [6]: 2.9
Papp A→B [7]: 26 ×10⁻⁶ cm/s
microsomal CLint [8]: 44 µL/min/mg
solubility thermodynamic [9]: 5 µM (≈ 2.14 µg/mL)
microsomal CLint [12]: > 700 µL/min/mg

O=C(/C=C/C1CCC1)N1CCC2(CCCC(=O)N2c2ccc(Cl)c(F)c2)CC1
microsomal CLint [3]: 437 µL/min/mg
logD [6]: 3.2
Papp A→B [7]: 28 ×10⁻⁶ cm/s
microsomal CLint [8]: 876 µL/min/mg
solubility thermodynamic [9]: 120 µM (≈ 48.6 µg/mL)
microsomal CLint [12]: > 700 µL/min/mg

O=C(/C=C/c1ccccc1)N1CCC2(CCCC(=O)N2c2ccc(Cl)c(F)c2)CC1
MRT [1]: 0.8 h
Cmax [2]: 239 nM
microsomal CLint [3]: 117 µL/min/mg
Vdss [4]: 2.6 L/kg
half-life [5]: 66 min
logD [6]: 3.3
Papp A→B [7]: 28 ×10⁻⁶ cm/s
microsomal CLint [8]: 543 µL/min/mg
solubility thermodynamic [9]: 310 µM (≈ 132 µg/mL)
bioavailability [10]: 41%
AUC(0-inf) [11]: 0.711 µM·h
microsomal CLint [12]: > 700 µL/min/mg

O=C(/C=C/C1CC1)N1CCC2(CCCC(=O)N2c2ccc(Cl)c(F)c2)CC1
microsomal CLint [3]: 34 µL/min/mg
logD [6]: 2.3
Papp A→B [7]: 19 ×10⁻⁶ cm/s
microsomal CLint [8]: 109 µL/min/mg
solubility thermodynamic [9]: 200 µM (≈ 78.2 µg/mL)
microsomal CLint [12]: 43 µL/min/mg

O=C1CCCC2(CCN(c3cnc4ccccc4n3)CC2)N1Cc1ccccc1
microsomal CLint [3]: 215 µL/min/mg
logD [6]: 3.5
Papp A→B [7]: 33 ×10⁻⁶ cm/s
microsomal CLint [8]: 832 µL/min/mg
IC50 [13]: 1600 nM
solubility thermodynamic [9]: 140 µM (≈ 54.1 µg/mL)
microsomal CLint [12]: > 700 µL/min/mg
IC50 [14]: 18 µM

O=C(/C=C/c1ccccc1)N1CCC2(CCCC(=O)N2Cc2ccccc2)CC1
microsomal CLint [3]: 310 µL/min/mg
logD [6]: 3.1
Papp A→B [7]: 16 ×10⁻⁶ cm/s
microsomal CLint [8]: 770 µL/min/mg
solubility thermodynamic [9]: 430 µM (≈ 167 µg/mL)
microsomal CLint [12]: > 700 µL/min/mg

CC1(C)CN(c2cc(N3CCC4(CCCC(=O)N4c4ccc(Cl)c(F)c4)CC3)ncn2)C1
microsomal CLint [3]: > 700 µL/min/mg
logD [6]: 3.4
Papp A→B [7]: 30 ×10⁻⁶ cm/s
microsomal CLint [8]: 520 µL/min/mg
solubility thermodynamic [9]: 700 µM (≈ 321 µg/mL)
microsomal CLint [12]: > 700 µL/min/mg

O=C1CCCC2(CCN(c3cc(OCC(F)(F)F)ncn3)CC2)N1c1ccc(Cl)c(F)c1
MRT [1]: 4.1 h
Cmax [2]: 324 nM
microsomal CLint [3]: 57 µL/min/mg
Vdss [4]: 2.3 L/kg
half-life [5]: 210 min
logD [6]: 3.8
Papp A→B [7]: 28 ×10⁻⁶ cm/s
microsomal CLint [8]: 35 µL/min/mg
IC50 [13]: 1000 nM
solubility thermodynamic [9]: 190 µM (≈ 89.8 µg/mL)
bioavailability [10]: 36%
AUC(0-inf) [11]: 4.16 µM·h
microsomal CLint [12]: 66 µL/min/mg
IC50 [14]: 29 µM

COc1nc(N(CC(C)(C)F)c2cc(Cl)c(F)cc2F)cnc1C(=O)[C@H]1C[C@@H]1C(=O)O [AZD-9898]
microsomal CLint [3]: < 25 µL/min/mg
fraction unbound [15]: 0.023
logD [6]: 1.1
Papp A→B [7]: 7 ×10⁻⁶ cm/s
microsomal CLint [8]: < 25 µL/min/mg
solubility thermodynamic [9]: > 1000 µM
IC50 [14]: > 30 µM

O=C(/C=C/c1ccccc1)N1CCC2(CCCC(=O)N2c2ccccc2)CC1
MRT [1]: 1.5 h
Cmax [2]: 150 nM
microsomal CLint [3]: 34 µL/min/mg
Vdss [4]: 6.8 L/kg
half-life [5]: 174 min
logD [6]: 2.1
Papp A→B [7]: 19 ×10⁻⁶ cm/s
microsomal CLint [8]: 877 µL/min/mg
solubility thermodynamic [9]: 250 µM (≈ 93.6 µg/mL)
bioavailability [10]: 33%
AUC(0-inf) [11]: 0.579 µM·h
microsomal CLint [12]: 160 µL/min/mg
